Reference: patent publication US20100254914A1, “NANOWORMS FOR IN VIVO TUMOR TARGETING” (THE REGENTS OF THE UNIVERSITY OF CALIFORNIA, priority 2009, published 2010)
Bridge positions count the residues as written; N and C are the ends. Ends that are not written are not given here.

Key:
C8161 cells = test: In vitro cellular fluorescence imaging with heating, C8161; assay type: cell-based; conditions: 20 min at 45° C. vs 37° C., then 2 hr at 37° C.
Procedure: (§1) In vitro cellular fluorescence imaging. The cells were treated with 80 ug Fe/mL of Cy5.5 labeled control NWs or LyP1NWs per well for 20 min at 37° C. or 45° C. in the presence of 10% FBS and incubated for an additional 2 hr at 37° C. in the presence of 10% FBS. The cells were then rinsed three times with cell medium, fixed, stained, and imaged by fluorescence microscopy.

MDA-MB-435 cells = test: In vitro cellular fluorescence imaging with heating, MDA-MB-435; assay type: cell-based, human; conditions: 20 min at 45° C. vs 37° C., then 2 hr at 37° C.
Procedure: as §1

C8161 tumors = test: In vivo temperature-induced tumor targeting of magnetic nanoworms, C8161; parameters: species or system mice; conditions: heated relative to unheated tumors
MDA-MB-435 tumors [1] = test: In vivo temperature-induced tumor targeting of magnetic nanoworms, MDA-MB-435; parameters: species or system mice; conditions: 45° C. for 30 min, 24 hrs post-injection
Procedure: In vivo temperature-induced tumor targeting of magnetic nanoworms. Mice bearing bilateral MDA-MB-435 human carcinoma tumors were intravenously injected with Cy7-labeled LyP1NWs or NWs and one flank of the mouse (containing one of the tumors) was immediately heated at 45° C. for 30 min in a temperature-controlled water bath. At 24 hrs post-injection, the tissues were harvested and the Cy7 fluorescence in tissues were imaged using NIR fluorescence imaging system (LI-COR Odyssey).

HT1080 tumors = test: In vivo tumor homing, HT1080 xenograft; parameters: species or system Nude BALB/c mice
Procedure: In vivo tumor homing. MDA-MB-435 human breast carcinoma cells or HT1080 human fibrosarcoma cells (1×10^6) were injected into the mammary fat pad or subcutaneously injected into Nude BALB/c mice, respectively. Tumors were used when they reached ˜0.5 cm in size. Some 0.2 cm or 1 cm tumors were used to compare the dependence of tumor size on NW homing. Cy7-labed or non-labeled NW or NS were intravenously injected into mice (n=3˜8 for each formulation) with a dose of 1 mg Fe/kg body mass (for fluorescence studies) and 3 mg Fe/kg body mass (for magnetization studies). For real-time observation of tumor/liver uptake, animals were imaged under anesthesia in Cy7 channel using the BonSai fluorescence-imaging system (Siemens, Pa., USA) 6 hrs, 24 hrs or 48 hrs after injection. For NIR fluorescence imaging of organs, animals were sacrificed 24 hrs after the injection by cardiac perfusion with PBS under anesthesia, and organs were dissected and imaged in Cy7 channel with a NIR fluorescence scanner (LI-COR biosciences, NE, USA). All the NIR images for animals or organs were taken at the same exposure time. To quantify the amount of NW or NS homing, collected tumors were weighed, freeze-dried in gelatin capsules, and then analyzed for magnetization using SQUID. […] At least three images from representative microscopic fields were analyzed for each tumor sample.

[2] = Hydrodynamic size by dynamic light scattering; assay type: physicochemical; conditions: Table 1
Excerpt: The nanostructure appears as linearly aggregated IO cores with a mean hydrodynamic size (in the long dimension) of 65 nm (FIG. 1a and Table 2). When a higher molecular mass dextran (40 kDa) was used branched IO cores were obtained, with a larger average size (˜100 nm) and a broader size distribution (FIG. 5). […] NW show a slightly larger saturation magnetization value (74.2 emu/gFe vs. 61.5 emu/gFe and 53.5 emu/gFe) and a higher MR contrast (R2=116 mMFe^−1S^−1 vs R2=70 mMFe^−1S^−1 and R2=95 mMFe^−1S^−1) than NS and Feridex (FIG. 1b). […]
Blood half-life and biodistribution. To quantify the in vivo circulation times of NW or NS samples in Nude BALB/c mice (n=3-4 for each formulation), heparinized capillary tubes (Fisher) were used to draw 15 μL (for fluorescence) or 70 μl (for magnetization) of blood from the periorbital plexus at different times after intravenous injection of the NW or NS samples (1, 3, or 10 mg Fe/kg body mass). […] For Cy7-labeled NW or NS formulations, blood extracted at different times was imaged in a 96-well plate in Cy7 channel (762 nm excitation/800 nm emission) with a NIR fluorescence scanner (LI-COR biosciences, NE, USA). The images were analyzed using the ImageJ (NIH) or Osirix (Apple) programs. […] Organs and blood were immediately weighed, freeze-dried in gelatin capsules, and then analyzed for magnetization using SQUID.

MDA-MB-435 tumors [3] = test: In vivo tumor homing, MDA-MB-435 xenograft; parameters: species or system Nude BALB/c mice; conditions: for tumor uptake / targeting efficiency: 24 hrs post-injection
Procedure: In vivo tumor homing. MDA-MB-435 human breast carcinoma cells or HT1080 human fibrosarcoma cells (1×10^6) were injected into the mammary fat pad or subcutaneously injected into Nude BALB/c mice, respectively. Tumors were used when they reached ˜0.5 cm in size. Some 0.2 cm or 1 cm tumors were used to compare the dependence of tumor size on NW homing. Cy7-labed or non-labeled NW or NS were intravenously injected into mice (n=3˜8 for each formulation) with a dose of 1 mg Fe/kg body mass (for fluorescence studies) and 3 mg Fe/kg body mass (for magnetization studies). For real-time observation of tumor/liver uptake, animals were imaged under anesthesia in Cy7 channel using the BonSai fluorescence-imaging system (Siemens, Pa., USA) 6 hrs, 24 hrs or 48 hrs after injection. For NIR fluorescence imaging of organs, animals were sacrificed 24 hrs after the injection by cardiac perfusion with PBS under anesthesia, and organs were dissected and imaged in Cy7 channel with a NIR fluorescence scanner (LI-COR biosciences, NE, USA). All the NIR images for animals or organs were taken at the same exposure time. To quantify the amount of NW or NS homing, collected tumors were weighed, freeze-dried in gelatin capsules, and then analyzed for magnetization using SQUID. For histologic analysis, frozen sections of tumors were prepared. The sections were fixed with 4% paraformaldehyde and stained with DAPI for observation of NW or NS only. The rat anti-mouse CD-31 (1:50, BD PharMingen) and biotinylated mouse fibrin(ogen) antiserum (1:50, Nordic) were used for immunochemicostaining of tumor tissue sections. The corresponding secondary antibodies were added and incubated for 1 hour at room temperature: AlexaFluor-594 goat anti-rat or rabbit IgG (1:1,000; Molecular Probes), streptavidin Alexa Fluor 594 (1:1000; Molecular Probes). The slides were washed three times with PBS and mounted in Vectashield Mounting Medium with DAPI. At least three images from representative microscopic fields were analyzed for each tumor sample.

p32 or gC1qR receptor = molecular target: T1, p32 or gC1qR receptor (human, UniProt Q07021 74-282); test: fluorescence microscopy of MDA-MB-435 cells, colocalization with anti-p32 stain
T1 construct: whole, on cells; Endogenous p32 on MDA-MB-435 cells and tumors, stained with an anti-p32 antibody; also called p32 receptors
T1 sequence (looked up): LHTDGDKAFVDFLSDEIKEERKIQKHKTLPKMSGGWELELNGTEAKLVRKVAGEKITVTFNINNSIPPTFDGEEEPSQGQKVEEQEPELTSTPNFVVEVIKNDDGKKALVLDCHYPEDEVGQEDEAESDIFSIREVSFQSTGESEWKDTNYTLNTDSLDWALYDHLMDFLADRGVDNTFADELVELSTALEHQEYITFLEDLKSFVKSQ

[4] = compared with the other samples

LyP1NWs: LyP-1 peptide attached to Cy5.5-labeled aminated NWs via PEG crosslinker, ~40 peptides per nanoworm (CGNKRTRGC; disulfide 1-9 (inferred); not fully specified; printed as Cys-Gly-Asn-Lys-Arg-Thr-Arg-Gly-Cys; also: extra Cys added for conjugation, position not given here)
binding and internalization upon heating (C8161 cells): lower heat-mediated internalization
binding and internalization upon heating (MDA-MB-435 cells): Significant quantities
homing to heated tumors (C8161 tumors): not significantly different
targeting to heated tumors (MDA-MB-435 tumors [1]): prominent relative to unheated tumors

NW-P175-C: NW with 175 amines to which CREKA is conjugated through a PEG spacer, 60 peptides (not fully specified; also: CREKA conjugated through PEG spacer to nanoworm with 175 amines, 60 peptides (attachment site not given here))
tumor uptake / targeting efficiency (HT1080 tumors; 24 hrs post-injection): best
tumor:liver ratio (NIR fluorescence) (HT1080 tumors; [4]): significant increases
Size [nm] (mean hydrodynamic size) [2]: 85.0 nm
tumor uptake / targeting efficiency (MDA-MB-435 tumors [3]): significantly higher levels of uptake
tumor uptake / targeting efficiency (MDA-MB-435 tumors [3]; listed as NW-P-175-C): best
tumor:liver ratio (NIR fluorescence) (MDA-MB-435 tumors [3]; [4]): significant increases

NW-P-C: PEGylated CREKA-conjugated NW (family; ~60 CREKA peptides in the comparison) (not fully specified; also: CREKA conjugated via PEG to nanoworms (attachment site not given here))
tumor uptake / targeting efficiency (MDA-MB-435 tumors [3]): significantly greater

B1: LyP-1 peptide-conjugated magnetic nanoworms (LyP1NWs) (peptide)
peptide: CGNKRTRGC
modifications: disulfide 1-9 (inferred); not fully specified; printed as Cys-Gly-Asn-Lys-Arg-Thr-Arg-Gly-Cys; also: peptide is cyclic, conjugated via PEG crosslinker to Cy5.5-labeled dextran iron oxide nanoworm, extra Cys added for conjugation, position not given here
notes: also called Lyp1-conjugated Cy5.5-labeled magnetic nanoworms; LyP1-conjugated NWs
binding result (p32 or gC1qR receptor): binds
